Assay results taken from patent US8058475B2, “Substituted cyclohexylmethyl compounds” (Gruenenthal GmbH, priority 2005, dated 2011).
Read-outs that look alike come from different tables or passages of the source.

Molecular target: human μ-opiate receptor (Homo sapiens, UniProt P35372)
Assay: Affinity for the human μ-opiate receptor ([3H]-naloxone displacement, SPA, CHO-K1 membrane preparation)
Assay type: binding
Conditions: for inhibition at 1 µM: read-out: μ-Opioid receptor, % inhibition [1 μM]; for Ki: read-out: μ-Opioid receptor, Ki
[1] = 1 μM test substance, inhibition of specific [3H]-naloxone binding

Chain of human μ-opiate receptor (P35372 whole entry): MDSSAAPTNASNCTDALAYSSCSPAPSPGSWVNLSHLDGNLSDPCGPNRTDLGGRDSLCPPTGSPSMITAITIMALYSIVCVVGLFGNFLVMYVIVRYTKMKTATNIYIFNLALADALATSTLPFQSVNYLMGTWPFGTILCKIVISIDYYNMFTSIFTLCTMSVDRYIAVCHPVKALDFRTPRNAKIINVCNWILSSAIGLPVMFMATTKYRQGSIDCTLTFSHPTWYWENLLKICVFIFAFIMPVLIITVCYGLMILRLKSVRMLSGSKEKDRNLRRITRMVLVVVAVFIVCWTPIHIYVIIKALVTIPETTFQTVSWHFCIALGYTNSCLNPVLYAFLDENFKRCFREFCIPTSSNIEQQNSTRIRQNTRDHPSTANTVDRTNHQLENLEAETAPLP

SMILES | inhibition at 1 µM [%] | Ki [nM] | inhibition at 1 µM [1] [%] | μ-Opioid receptor, % inhibition [1 μM] (1 µM) [%] | μ-Opioid receptor, % inhibition [1 μM] [%]
CN(C)C(c1ccc(Cl)cc1)C1CCC(CCNC(=O)c2cccnc2Cl)CC1 (stereo not shown) [compound 441, 2-chloro-N-(2-{4-[(4-chloro-phenyl)-dimethylamino-methyl]-cyclohexyl}-ethyl)-nicotinamide] | 83 | 200 |  |  | 
CN(C)C(c1ccc(Cl)cc1)C1CCC(O)(CCc2ccccc2)CC1 (stereo not shown) [compound 163, 4-[(4-chloro-phenyl)-dimethylamino-methyl]-1-phenethyl-cyclohexanol] |  |  | 81 |  | 
CCCCC1(O)CCC(C(c2ccc(Cl)cc2)N(C)C)CC1 (stereo not shown) [compound 167, 1-butyl-4-[(4-chloro-phenyl)-dimethylamino-methyl]-cyclohexanol] |  |  | 58 |  | 
CCCCCCC1(O)CCC(C(c2ccc(Cl)cc2)N(C)C)CC1 (stereo not shown) [compound 168, 4-[(4-chloro-phenyl)-dimethylamino-methyl]-1-hexyl-cyclohexanol] |  |  | 58 |  | 
CC(Oc1ccccc1)C(=O)NCC1CCC(C(c2cccc(F)c2)N(C)C)CC1 (stereo not shown) [compound 346, N-{4-[dimethylamino-(3-fluoro-phenyl)-methyl]-cyclohexylmethyl}-2-phenoxy-propionamide] | 90 | 65 |  |  | 
CN(C)C(c1cccc(F)c1)C1CCC(CCNC(=O)c2cc(F)c(Cl)cc2Cl)CC1 (single isomer, unassigned) [compound 439, 2,4-dichloro-N-(2-{4-[dimethylamino-(3-fluoro-phenyl)-methyl]-cyclohexyl}-ethyl)-5-fluoro-benzamide] |  | 52 |  | 85 | 
CN(C)C(c1cccs1)C1CCC(CCNC(=O)c2cc(F)c(Cl)cc2Cl)CC1 (stereo not shown) [compound 440, 2,4-dichloro-N-{2-[4-(dimethylamino-thiophen-2-yl-methyl)-cyclohexyl]-ethyl}-5-fluoro-benzamide] | 95 | 15 |  |  | 
CN(C)C(c1ccccc1)C1CCC(CCNC(=O)c2ccccc2F)CC1 (stereo not shown) [compound 410, N-{2-[4-(dimethylamino-phenyl-methyl)-cyclohexyl]-ethyl}-2-fluoro-benzamide] | 88 | 5.8 |  |  | 
Cc1oc(-c2ccccc2)cc1C(=O)NCC1CCC(C(c2cccc(F)c2)N(C)C)CC1 (stereo not shown) [compound 353, 2-methyl-5-phenyl-furan-3-carboxylic acid {4-[dimethylamino-(3-fluoro-phenyl)-methyl]-cyclohexylmethyl}-amide] | 87 | 96 |  |  | 
CC(Oc1ccccc1)C(=O)NC1CCC(C(c2cccc(F)c2)N(C)C)CC1 (single isomer, unassigned) [compound 222, N-{4-[dimethylamino-(3-fluoro-phenyl)-methyl]-cyclohexyl}-2-phenoxy-propionamide] |  | 20 |  | 88 | 
CN(C)C(c1cccs1)C1CCC(CNC(=O)c2cc(F)cc(C(F)(F)F)c2)CC1 (stereo not shown) [compound 308, N-[4-(dimethylamino-thiophen-2-yl-methyl)-cyclohexylmethyl]-3-fluoro-5-trifluoromethyl-benzamide] | 98 | 7.4 |  |  | 
Cc1ccccc1C(=O)NCCC1CCC(C(c2cccc(F)c2)N(C)C)CC1 (stereo not shown) [compound 420, N-(2-{4-[dimethylamino-(3-fluoro-phenyl)-methyl]-cyclohexyl}-ethyl)-2-methyl-benzamide] | 94 | 16 |  |  | 
CSc1ncccc1C(=O)NCC1CCC(C(c2ccc(F)cc2)N(C)C)CC1 (stereo not shown) [compound 381, N-{4-[dimethylamino-(4-fluoro-phenyl)-methyl]-cyclohexylmethyl}-2-methyl-sulfanyl-nicotinamide] |  | 99 |  |  | 83
CN(C)C(c1cccc(F)c1)C1CCC(NC(=O)c2cc3ccccc3s2)CC1 (stereo not shown) [compound 231, benzo[b]thiophene-2-carboxylic acid {4-[dimethylamino-(3-fluoro-phenyl)-methyl]-cyclohexyl}-amide] | 86 | 45 |  |  | 
